System: 958767-090-R-J1-PDC spheroid growth
Assay: Anticancer human tumor 958767-090-R-J1-PDC patient-derived head and neck squamous carcinoma cell line growth inhibition [IpAb]
Settings: spheroids with HUVEC and MSC; for IC50: curve of first compound; for viability, T/C: stronger effect = lower value
Outline: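 Combinations with ipatasertib or abemaciclib were tested on tumour spheroids holding HUVEC (25%) and MSC (15%) alongside 60% malignant cells. Top concentration was at or near clinical Cmax (10 microM if undefined), descending in half-log steps.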

[1] = second compound 0.1 µM, first compound 0.0316 µM
[2] = second compound 0.1 µM, first compound 0.1 µM
[3] = second compound 0.316 µM, first compound 0.0316 µM
[4] = second compound 0.316 µM, first compound 0.1 µM
[5] = second compound 1 µM, first compound 0.0316 µM
[6] = second compound 1 µM, first compound 0.1 µM
[7] = second compound 3.16 µM, first compound 0.0316 µM
[8] = second compound 3.16 µM, first compound 0.1 µM
[9] = second compound 10 µM, first compound 0.0316 µM
[10] = second compound 10 µM, first compound 0.1 µM
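Further: spheroids exposed to agents for 7 days.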
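Wherever viability, T/C is given: 100% = DMSO vehicle control wells.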

## Cn1ncc(Cl)c1-c1cc(C(=O)NC(CN)Cc2cccc(F)c2)sc1Cl (stereo not given) + CC(C)NCC(C(=O)N1CCN(c2ncnc3c2C(C)CC3O)CC1)c1ccc(Cl)cc1
Second compound 0.1 µM
  IC50: 1210 nM
Second compound 0.316 µM
  IC50: 952 nM
Second compound 1 µM
  IC50: 1020 nM
Second compound 3.16 µM
  IC50: 113 nM
Second compound 10 µM
  IC50: < 31.6 nM
[1]
  viability, T/C: 70.3%
[2]
  viability, T/C: 70.3%
Second compound 0.1 µM, first compound 0.316 µM
  viability, T/C: 54.5%
Second compound 0.1 µM, first compound 1 µM
  viability, T/C: 59.3%
Second compound 0.1 µM, first compound 3.16 µM
  viability, T/C: 32.8%
Second compound 0.1 µM, first compound 10 µM
  viability, T/C: 0.14%
[3]
  viability, T/C: 57.5%
[4]
  viability, T/C: 62.6%
Second compound 0.316 µM, first compound 0.316 µM
  viability, T/C: 52.2%
Second compound 0.316 µM, first compound 1 µM
  viability, T/C: 47.5%
Second compound 0.316 µM, first compound 3.16 µM
  viability, T/C: 37.9%
Second compound 0.316 µM, first compound 10 µM
  viability, T/C: 0.46%
[5]
  viability, T/C: 54.6%
[6]
  viability, T/C: 50.8%
Second compound 1 µM, first compound 0.316 µM
  viability, T/C: 55.4%
Second compound 1 µM, first compound 1 µM
  viability, T/C: 50%
Second compound 1 µM, first compound 3.16 µM
  viability, T/C: 31.6%
Second compound 1 µM, first compound 10 µM
  viability, T/C: 0.13%
[7]
  viability, T/C: 53.1%
[8]
  viability, T/C: 47.6%
Second compound 3.16 µM, first compound 0.316 µM
  viability, T/C: 48.4%
Second compound 3.16 µM, first compound 1 µM
  viability, T/C: 45.7%
Second compound 3.16 µM, first compound 3.16 µM
  viability, T/C: 32.3%
Second compound 3.16 µM, first compound 10 µM
  viability, T/C: 0.64%
[9]
  viability, T/C: 42.5%
[10]
  viability, T/C: 36.3%
Second compound 10 µM, first compound 0.316 µM
  viability, T/C: 39.8%
Second compound 10 µM, first compound 1 µM
  viability, T/C: 42.5%
Second compound 10 µM, first compound 3.16 µM
  viability, T/C: 22.2%
Second compound 10 µM, first compound 10 µM
  viability, T/C: 0.81%

## Cn1ncnc1[C@H]1c2n[nH]c(=O)c3cc(F)cc(c23)N[C@@H]1c1ccc(F)cc1 + CC(C)NCC(C(=O)N1CCN(c2ncnc3c2C(C)CC3O)CC1)c1ccc(Cl)cc1
Second compound 0.1 µM
  IC50: > 100 nM
Second compound 0.316 µM
  IC50: > 100 nM
Second compound 1 µM
  IC50: > 100 nM
Second compound 3.16 µM
  IC50: > 100 nM
Second compound 10 µM
  IC50: 51.3 nM
Second compound 0.1 µM, first compound 0.000316 µM
  viability, T/C: 91.5%
Second compound 0.1 µM, first compound 0.001 µM
  viability, T/C: 87.8%
Second compound 0.1 µM, first compound 0.00316 µM
  viability, T/C: 91.2%
Second compound 0.1 µM, first compound 0.01 µM
  viability, T/C: 83.7%
[1]
  viability, T/C: 87.4%
[2]
  viability, T/C: 73%
Second compound 0.316 µM, first compound 0.000316 µM
  viability, T/C: 70%
Second compound 0.316 µM, first compound 0.001 µM
  viability, T/C: 77.4%
Second compound 0.316 µM, first compound 0.00316 µM
  viability, T/C: 74.7%
Second compound 0.316 µM, first compound 0.01 µM
  viability, T/C: 86.8%
[3]
  viability, T/C: 77.6%
[4]
  viability, T/C: 65.8%
Second compound 1 µM, first compound 0.000316 µM
  viability, T/C: 69.5%
Second compound 1 µM, first compound 0.001 µM
  viability, T/C: 63.9%
Second compound 1 µM, first compound 0.00316 µM
  viability, T/C: 72.2%
Second compound 1 µM, first compound 0.01 µM
  viability, T/C: 74.2%
[5]
  viability, T/C: 62.4%
[6]
  viability, T/C: 56.4%
Second compound 3.16 µM, first compound 0.000316 µM
  viability, T/C: 65%
Second compound 3.16 µM, first compound 0.001 µM
  viability, T/C: 52.6%
Second compound 3.16 µM, first compound 0.00316 µM
  viability, T/C: 58.8%
Second compound 3.16 µM, first compound 0.01 µM
  viability, T/C: 70.2%
[7]
  viability, T/C: 62.4%
[8]
  viability, T/C: 59.3%
Second compound 10 µM, first compound 0.000316 µM
  viability, T/C: 63.3%
Second compound 10 µM, first compound 0.001 µM
  viability, T/C: 55.3%
Second compound 10 µM, first compound 0.00316 µM
  viability, T/C: 58.1%
Second compound 10 µM, first compound 0.01 µM
  viability, T/C: 58.4%
[9]
  viability, T/C: 56%
[10]
  viability, T/C: 42%

Source: PubChem BioAssay AID2060336 (Molecular Pharmacology Branch, DTP, NCI, 2025)
